This note sets out measurements from article PMC6359144 (International Journal of Molecular Sciences, 2019).

For experiment [1], the target named is T1, recombinant human HDAC6 (Homo sapiens, UniProt Q9UBN7).
T1 construct: purchased Biovision
T1 sequence (Q9UBN7 1-1215): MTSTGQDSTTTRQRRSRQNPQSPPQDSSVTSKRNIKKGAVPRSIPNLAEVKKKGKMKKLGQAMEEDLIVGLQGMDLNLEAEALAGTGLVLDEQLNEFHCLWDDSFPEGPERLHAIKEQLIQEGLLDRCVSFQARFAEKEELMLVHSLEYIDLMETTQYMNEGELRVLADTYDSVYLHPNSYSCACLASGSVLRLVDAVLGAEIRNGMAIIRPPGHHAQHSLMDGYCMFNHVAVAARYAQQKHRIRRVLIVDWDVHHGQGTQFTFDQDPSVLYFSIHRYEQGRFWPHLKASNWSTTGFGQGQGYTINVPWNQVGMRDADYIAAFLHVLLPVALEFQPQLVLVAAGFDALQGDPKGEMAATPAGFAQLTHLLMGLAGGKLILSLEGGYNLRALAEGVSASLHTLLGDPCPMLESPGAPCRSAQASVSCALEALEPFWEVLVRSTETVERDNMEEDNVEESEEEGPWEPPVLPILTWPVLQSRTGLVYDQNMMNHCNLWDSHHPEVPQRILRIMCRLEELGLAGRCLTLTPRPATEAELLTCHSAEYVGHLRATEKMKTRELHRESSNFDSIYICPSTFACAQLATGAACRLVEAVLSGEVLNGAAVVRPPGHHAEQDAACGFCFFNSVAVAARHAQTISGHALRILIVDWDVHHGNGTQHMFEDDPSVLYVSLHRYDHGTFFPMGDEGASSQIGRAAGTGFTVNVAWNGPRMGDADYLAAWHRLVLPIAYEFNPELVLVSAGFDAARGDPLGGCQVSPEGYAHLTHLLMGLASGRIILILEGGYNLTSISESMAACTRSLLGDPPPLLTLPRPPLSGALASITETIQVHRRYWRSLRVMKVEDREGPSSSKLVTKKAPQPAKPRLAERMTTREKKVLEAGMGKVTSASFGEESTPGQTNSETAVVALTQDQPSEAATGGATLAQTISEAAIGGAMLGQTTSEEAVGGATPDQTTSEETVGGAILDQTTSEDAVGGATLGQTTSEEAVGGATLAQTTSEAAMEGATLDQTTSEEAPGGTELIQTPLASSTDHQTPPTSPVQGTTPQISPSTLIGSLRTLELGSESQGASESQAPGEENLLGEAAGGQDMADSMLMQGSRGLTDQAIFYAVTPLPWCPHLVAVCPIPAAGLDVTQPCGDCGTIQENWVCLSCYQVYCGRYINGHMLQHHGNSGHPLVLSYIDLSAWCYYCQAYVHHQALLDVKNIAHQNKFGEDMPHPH
The experiment in a line: HDAC6 inhibitor screening assay (fluorometric). Particulars: recombinant human HDAC6, mean ± SD of two experiments; read-out: HDAC inhibition IC50, HDAC6. It counts as biochemical. The method, then: The HDAC inhibitory potential of the novel compounds was determined by utilizing the deacetylase activity of recombinant human HDAC1 (HDAC1 Inhibitor Screening Assay Kit; Cayman Chemicals) or HDAC6 (HDAC6 Inhibitor Screening Kit (Fluorometric); Biovision) towards the corresponding synthetic acetylated-peptide substrates resulting in the release of a fluorescent product. The assays were performed according to manufacturer’s description of the in commercially available assay kits. […] The IC50 values were derived from dose-response curves and are expressed as the means ± SD of two independent experiments.

The test system of experiment [2] is 518A2 melanoma cells. The experiment in a line: DCFH-DA assay of intracellular ROS. It counts as cell-based, human. The note with it: 10 µM, 1 h, vehicle treated controls set to 100%. From the text: Gosch 2,3, Alexandra […] Rothemund 1, Thomas Mueller 4, […] Schobert 1, Bernhard Biersack 1,*, Andrea Volkamer 3 and Michael […] 2,* 1 Department of Chemistry, University of […], Germany; florian1.schmitt@uni-[…].rothemund@uni -[…].schobert@uni - bayreuth.de (R.S.) 2 Institute of Physiology, Charité-Universitätsmedizin Berlin, Charitéplatz 1, 10117 Berlin, Germany; […].), alexandra.[…].) 3 In Silico Toxicology Group, Institute of Physiology, Charité-Universitätsmedizin Berlin, Charitéplatz 1, 10117 Berlin, Germany; […] 4 Internal Medicine IV, University Hospital […], Germany; thomas.mueller@medizin.uni-[…] * Correspondence: bernhard.biersack@yahoo.com (B.B.); michael.hoepfner@charite.de (M.H.); Tel.: +49-921- 55- 2673 (B.B.); Tel: +49-030-450-528 -515(M.H.); Table of content Material and Methods ... S1 DCFH-DA assay. ... S1 Immuofluorescence staining of acetylated alpha-tubulin ... S2 Wound healing assay ... S2 Results ... S3 Effect on the microtubule cytoskeleton ... S3 Effect on the intracellular ROS levels ... S3 Effect on the acetylation of alpha-tubulin ... S3 Effect on migratory activity ... S5 Effect on mouse weight ... S6 Graphs of MTT assays ... S7 S1 Material and Methods DCFH-DA assay. The assay was performed as previously described. […] 100 μL/well) were grown in a black 96-well plate for 24 h. Then, the cell medium was exchanged for […] After […] and vehicle (DMSO) in serum-free DMEM for 1 h at 37 °C. Then, the cells were washed twice with 100 μL PBS and subsequently placed in a microplate reader (TECAN). The DCF-fluorescence (λex = 485 nm, λem = 535 nm) as a measure of ROS production was determined and that of vehicle treated controls set to 100%. Values exceeding 100% indicate a drug-induced ROS generation. The values of six independent assays were depicted as the means ± SD. There were no outliers and the data fulfilled variance homogeneity (Levene's test, p > 0.05).

For orientation: IC50 means the midpoint of a concentration-inhibition curve. Consider `COc1ccc(-c2ocnc2-c2cc(Br)c(OC)c(OC)c2)cc1OCCCC(=O)NO` [4d, N-Hydroxy-4-[1-methoxy-4-(4’-(3’’-bromo-4’’,5’’-dimethoxyphenyl)oxazol-5’-yl)-2-phenoxy]butanamide], for which, in experiment [1], the IC50 worked out at 13.8 ± 0.2 µM. For the same compound, the “intracellular ROS level” value in experiment [2] is 241% ± 17.

As for `COc1ccc(-c2ocnc2-c2cc(Br)c(OC)c(OC)c2)cc1OCCCCC(=O)NO` [4e, N-Hydroxy-5-[1-methoxy-4-(4’-(3’’-bromo-4’’,5’’-dimethoxyphenyl)oxazol-5’-yl)-2-phenoxy]pentanamide], in experiment [1], the half-inhibitory concentration (IC50) was found to be 3.5 ± 0.1 µM. In addition, the “intracellular ROS level” value in experiment [2] is listed as 230 ± 31%.

Take `COc1ccc(-c2ocnc2-c2cc(Br)c(OC)c(OC)c2)cc1OCCCCCC(=O)NO` [4f, N-Hydroxy-6-[1-methoxy-4-(4’-(3’’-bromo-4’’,5’’-dimethoxyphenyl)oxazol-5’-yl)-2-phenoxy]hexanamide]: in experiment [1], the concentration for half-maximal inhibition (IC50) was 0.32 ± 0.02 µM. In addition, in experiment [2], the “intracellular ROS level” value is on record as 198 ± 24%.
